Assays:
[1] = system: spontaneously hypertensive rats (SHR); assay: Pharmacological Experiment 1: hypotensive effects, systolic blood pressure at one hour after oral administration, tail cuff method; assay type: in vivo, rat; conditions: SHR P.O., 30 mg/kg
Description: Pharmacological Experiment 1: hypotensive effects
To spontaneously hypertensive rats (SHR) weighing 350-450 g (3-5 per group) was orally administered a test compound (30 mg/kg) dissolved in 0.5% hydroxypropylmethylcellulose, and systolic blood pressure at one hour after administration was determined by tail cuff method to examine hypotensive effects.

[2] = system: thoracic aorta; assay: Pharmacological Experiment 2: vasodilating effects, relaxation of phenylephrine-contracted thoracic aorta rings; assay type: cell-based; conditions: Oryctolagus cuniculus; rabbit thoracic aorta rings contracted with phenylephrine (10^-6 M); contraction by phenylephrine as 100%; read-out: vasodilating action (concentration necessary for 50% relaxation, IC50)
Description: Pharmacological Experiment 2: vasodilating effects
Male rabbits (body weight 1.9-3.0 kg) were anesthetized with sodium pentobarbital and killed by exsanguinity. The thoracic aorta was removed and about 2 mm wide ring specimens were prepared. The specimens were hung in a 40 ml Magnus bath filled with Krebs-Henseleit solution (NaCl 117 mM; KCl 4.7 mM; CaCl2 2.5 mM; MgSO4 1.2 mM; NaHCO3 24.8 mM; KH2 PO4 1.2 mM; glucose 11.0 mM) at 37° C. at a load of 2 g. The Magnus bath was constantly aerated with a mixed gas (95% oxygen+5% carbon dioxide). The tension of the specimens was measured by isometric transducer (TB-611T, Nihon Koden). The specimens were contracted with phenylephrine (10^-6 M) and when the contraction became constant, the compound was cumulatively added to observe relaxing response. The relaxing response by the compound was calculated relative to contraction by phenylephrine as 100% as the concentration necessary for 50% relaxation (IC50, μM).

[3] = system: tracheal specimen; assay: Pharmacological Experiment 3: effect on contraction caused by acetylcholine in extracted tracheal specimen; assay type: cell-based; conditions: Cavia porcellus; guinea pig trachea contracted with acetylcholine (10^-6 M); relative to maximum response by papaverine (10^-4 M) as 100%; read-out: bronchodilative action (IC50)
Description: Pharmacological Experiment 3: Effect on contraction caused by acetylcholine in tracheal specimen extracted from guinea pig
Male Hartley guinea pigs (body weight 260-390 g) were anesthetized by intraperitoneal administration of pentobarbital sodium (100 mg/kg) and killed by exsanguinity. The trachea was removed and ventral cartilage was cut open and ligament was cut in 3 mm width to prepare specimens. The specimens were hung in a 40 ml Magnus bath filled with Krebs-Henseleit solution (NaCl 117 mM; KCl 4.7 mM; CaCl2 2.5 mM; MgSO4 1.2 mM; NaHCO3 24.8 mM; KH2 PO4 1.2 mM; glucose 11.0 mM) at 37° C. at a load of 1 g. The Magnus bath was constantly aerated with a mixed gas (95% oxygen+5% carbon dioxide). The tension of the specimens was measured by isometric transducer (TB-611T, Nihon Koden) and recorded on a recorder (Ti-102, Tokai Irika). The specimens were contracted with acetylcholine (10^-6 M) and when the contraction became constant, the compound was cumulatively added to observe relaxing response. The relaxing response by the compound was calculated relative to maximum response by papaverine (10^-4 M) as 100% as the concentration necessary for 50% relaxation (IC50, μM).

SMILES | hypotensive effect [1] [mmHg] | IC50 [2] [nM] | IC50 [3] [nM]
C[C@@H](N)c1ccc(C(=O)Nc2ccncc2)cc1 [Example 1, (R)-N-(4-pyridyl)-4-(1-aminoethyl)benzamide] | -116 | – | –
C[C@@H](N)c1ccc(C(=O)Nc2ccnc3[nH]ccc23)cc1 [Example 9, (R)-(+)-N-(1H-pyrrolo[2,3-b]pyridin-4-yl)-4-(1-aminoethyl)benzamide] | -131 | 50 | 50
C[C@@H](N)c1ccc(C(=O)Nc2ccnc3[nH]ccc23)cc1N=[N+]=[N-] [Example 150, (R)-(-)-N-(1H-pyrrolo[2,3-b]pyridin-4-yl)-4-(1-aminoethyl)-3-azidobenzamide] | – | 30 | –
